Experimental data published in US7709636B2, “Pyrazole sulfonylurea compound and herbicide” (Nissan Chemical Industries, Ltd., priority 2004, dated 2010).

Assays:
direct sown rice [1] = assay: Herbicidal effect test by foliage treatment; format: in vivo, Oryza sativa; conditions: 1.6 g/a; foliage treatment after growth of 14 days; 3 weeks after treatment
From the text: (§1) Herbicidal Effect Test by Foliage Treatment
(§2) Sterilized diluvial soil was placed in a plastic box having a size of length 21 cm, width 13 cm and depth 7 cm, seeds of Echinochloa crus-galli, Digitaria adscendes, Setaria viridis, Avena fatua, Black-grass, Abutilon avicennae, Ambrosia elatior, Amaranthus retroflexus, Chenopodium album, Polygonum blumei, Stellaria media, Zea mays, Glycine max, Oryza sativa, Triticum aestivum and Beta vulgaris were sown interspatially, covered with about 1.5 cm of soil, and then the plants were grown by putting the box in a green house at 25 to 30° C. After growth of 14 days, the wettable powder of the present invention prepared according to Formulation Example 1 was diluted with water so as to give a predetermined formulation amount, and the foliage part was uniformly treated with the diluted wettable powder by use of a small-sized spray. The herbicidal effect for each plant was investigated 3 weeks after treatment with the herbicide according to the criteria indicated in Test Example 1.

Avena fatua = assay: Herbicidal effect test by foliage treatment; format: in vivo; conditions: 1.6 g/a; foliage treatment after growth of 14 days; 3 weeks after treatment
From the text: as §1, §2

Amaranthus retroflexus [2] = assay: Herbicidal effect test by foliage treatment; format: in vivo; conditions: 1.6 g/a; foliage treatment after growth of 14 days; 3 weeks after treatment
From the text: as §1, §2

corn (Zea mays) [3] = assay: Herbicidal effect test by foliage treatment; format: in vivo; conditions: 1.6 g/a; foliage treatment after growth of 14 days; 3 weeks after treatment
From the text: as §1, §2

Digitaria adscendes [4] = assay: Herbicidal effect test by foliage treatment; format: in vivo; conditions: 1.6 g/a; foliage treatment after growth of 14 days; 3 weeks after treatment
From the text: as §1, §2

Black-grass = assay: Herbicidal effect test by foliage treatment; format: in vivo; conditions: 1.6 g/a; foliage treatment after growth of 14 days; 3 weeks after treatment
From the text: as §1, §2

Setaria viridis [5] = assay: Herbicidal effect test by foliage treatment; format: in vivo; conditions: 1.6 g/a; foliage treatment after growth of 14 days; 3 weeks after treatment
From the text: as §1, §2

Echinochloa crus-galli [6] = assay: Herbicidal effect test by foliage treatment; format: in vivo; conditions: 1.6 g/a; foliage treatment after growth of 14 days; 3 weeks after treatment
From the text: as §1, §2

Beta vulgaris (beet) [7] = assay: Herbicidal effect test by foliage treatment; format: in vivo; conditions: 1.6 g/a; foliage treatment after growth of 14 days; 3 weeks after treatment
From the text: as §1, §2

soybean (Glycine max) [8] = assay: Herbicidal effect test by foliage treatment; format: in vivo; conditions: 1.6 g/a; foliage treatment after growth of 14 days; 3 weeks after treatment
From the text: as §1, §2

Ambrosia elatior [9] = assay: Herbicidal effect test by foliage treatment; format: in vivo; conditions: 1.6 g/a; foliage treatment after growth of 14 days; 3 weeks after treatment
From the text: as §1, §2

[10] = test system: Triticum aestivum (wheat); assay: Herbicidal effect test by foliage treatment; format: in vivo; conditions: 1.6 g/a; foliage treatment after growth of 14 days; 3 weeks after treatment
From the text: as §1, §2

Abutilon avicennae [11] = assay: Herbicidal effect test by foliage treatment; format: in vivo; conditions: 1.6 g/a; foliage treatment after growth of 14 days; 3 weeks after treatment
From the text: as §1, §2

Chenopodium album [12] = assay: Herbicidal effect test by foliage treatment; format: in vivo; conditions: 1.6 g/a; foliage treatment after growth of 14 days; 3 weeks after treatment
From the text: as §1, §2

Polygonum blumei [13] = assay: Herbicidal effect test by foliage treatment; format: in vivo; conditions: 1.6 g/a; foliage treatment after growth of 14 days; 3 weeks after treatment
From the text: as §1, §2

Stellaria media [14] = assay: Herbicidal effect test by foliage treatment; format: in vivo; conditions: 1.6 g/a; foliage treatment after growth of 14 days; 3 weeks after treatment
From the text: as §1, §2

Echinochloa crus-galli [15] = assay: Herbicidal effect test in submerged condition by treatment during weed-growth stage (1); format: in vivo; conditions: 0.64 g/a, treated at 1st to 2nd leaf stage, 3 weeks after treatment
Method: (§3) Herbicidal Effect Test in Submerged Condition by Treatment During Weed-Growth Stage (1) After alluvial soil was placed in a styrol cup of 1/30000 are, water was poured therein and mixed, and adjusted to a submerged condition of water depth 4 cm. After seeds of Echinochloa crus-galli, Scirpus juncoides and Monochoria vaginalis were sown in the cup, the plants were grown by putting the cup in a green house at 25 to 30° C. When Echinochloa crus-galli, Scirpus juncoides and Monochoria vaginalis reached 1st to 2nd leaf stage, the wettable powder of the present invention prepared according to Formulation Example 1 was diluted with water so as to give a predetermined formulation amount, and the surface of the water was treated with the diluted wettable powder. The herbicidal effect for each plant was investigated 3 weeks after treatment with the herbicide according to the criteria indicated in Test Example 1.

Scirpus juncoides [16] = assay: as above; format: in vivo; conditions: 0.64 g/a, treated at 1st to 2nd leaf stage, 3 weeks after treatment
Method: as §3

Monochoria vaginalis [17] = assay: as above; format: in vivo; conditions: 0.64 g/a, treated at 1st to 2nd leaf stage, 3 weeks after treatment
Method: as §3

direct sown rice [18] = assay: Herbicidal effect test by soil treatment; format: in vivo, Oryza sativa; conditions: 1.6 g/a, 3 weeks after treatment
From the text: (§4) Herbicidal Effect Test by Soil Treatment
(§5) Sterilized diluvial soil was placed in a plastic box having a size of length 21 cm, width 13 cm and depth 7 cm, seeds Echinochloa crus-galli, Digitaria adscendes, Setaria viridis, Avena fatua, Black-grass, Abutilon avicennae, Ambrosia elatior, Amaranthus retroflexus, Chenopodium album, Polygonum blumei, Stellaria media, Zea mays (corn), Glycine max (soybean), Oryza sativa (rice), Triticum aestivum (wheat) and Beta vulgaris (beat) were sown interspatially, covered with about 1.5 cm of soil, and then the wettable powder of the present invention prepared according to Formulation Example 1 was diluted with water so as to give a predetermined formulation amount, and the surface of the soil was uniformly treated with the diluted wettable powder by use of a small-sized spray. The herbicidal effect for each plant was investigated 3 weeks after treatment with the herbicide according to the criteria indicated in Test Example 1.

Amaranthus retroflexus [19] = assay: Herbicidal effect test by soil treatment; format: in vivo; conditions: 1.6 g/a, 3 weeks after treatment
From the text: as §4, §5

corn (Zea mays) [20] = assay: Herbicidal effect test by soil treatment; format: in vivo; conditions: 1.6 g/a, 3 weeks after treatment
From the text: as §4, §5

Digitaria adscendes [21] = assay: Herbicidal effect test by soil treatment; format: in vivo; conditions: 1.6 g/a, 3 weeks after treatment
From the text: as §4, §5

Setaria viridis [22] = assay: Herbicidal effect test by soil treatment; format: in vivo; conditions: 1.6 g/a, 3 weeks after treatment
From the text: as §4, §5

Echinochloa crus-galli [23] = assay: Herbicidal effect test by soil treatment; format: in vivo; conditions: 1.6 g/a, 3 weeks after treatment
From the text: as §4, §5

Beta vulgaris (beet) [24] = assay: Herbicidal effect test by soil treatment; format: in vivo; conditions: 1.6 g/a, 3 weeks after treatment
From the text: as §4, §5

soybean (Glycine max) [25] = assay: Herbicidal effect test by soil treatment; format: in vivo; conditions: 1.6 g/a, 3 weeks after treatment
From the text: as §4, §5

Ambrosia elatior [26] = assay: Herbicidal effect test by soil treatment; format: in vivo; conditions: 1.6 g/a, 3 weeks after treatment
From the text: as §4, §5

Abutilon avicennae [27] = assay: Herbicidal effect test by soil treatment; format: in vivo; conditions: 1.6 g/a, 3 weeks after treatment
From the text: as §4, §5

Chenopodium album [28] = assay: Herbicidal effect test by soil treatment; format: in vivo; conditions: 1.6 g/a, 3 weeks after treatment
From the text: as §4, §5

Polygonum blumei [29] = assay: Herbicidal effect test by soil treatment; format: in vivo; conditions: 1.6 g/a, 3 weeks after treatment
From the text: as §4, §5

Stellaria media [30] = assay: Herbicidal effect test by soil treatment; format: in vivo; conditions: 1.6 g/a, 3 weeks after treatment
From the text: as §4, §5

Echinochloa crus-galli [31] = assay: Herbicidal effect test in submerged condition by treatment before weed-generation (1); format: in vivo; conditions: 0.64 g/a, water surface treated on day of sowing, 3 weeks after treatment
From the text: (§6) Herbicidal Effect Test in Submerged Condition by Treatment Before Weed-Generation (1)
(§7) After alluvial soil was placed in a styrol cup of 1/30000 are, water was poured therein and mixed, and adjusted to a submerged condition of water depth 4 cm. After seeds of Echinochloa crus-galli, Scirpus juncoides and Monochoria vaginalis were sown in the cup, rice seedlings at 2.5th leaf stage were transplanted. On the day when the seeds were sown, the wettable powder of the present invention prepared according to Formulation Example 1 was diluted with water so as to give a predetermined formulation amount, and the surface of the water was treated with the diluted wettable powder. The plants were grown by putting the cup in a green house at 25 to 30° C., and investigated on herbicidal effect against each weed 3 weeks after treatment with the herbicide according to the following criteria.
(§8) 5 Herbicidal rate 90% or more (almost complete death)
(§9) 4 Herbicidal rate 70% or more and less than 90%
(§10) 3 Herbicidal rate 40% or more and less than 70%
(§11) 2 Herbicidal rate 20% or more and less than 40%
(§12) 1 Herbicidal rate 5% or more and less than 20%
(§13) 0 Herbicidal rate 5% or less (little effect)

Scirpus juncoides [32] = assay: as above; format: in vivo; conditions: 0.64 g/a, water surface treated on day of sowing, 3 weeks after treatment
From the text: as §6, §7, §8, §9, §10, §11, §12, §13

Monochoria vaginalis [33] = assay: as above; format: in vivo; conditions: 0.64 g/a, water surface treated on day of sowing, 3 weeks after treatment
From the text: as §6, §7, §8, §9, §10, §11, §12, §13

SMILES: COc1cc(OC)nc(NC(=O)NS(=O)(=O)c2c(C3=NOCC(CI)O3)c(Cl)nn2C)n1 (centres unmarked) [Compound 2, N-((4,6-dimethoxypyrimidin-2-yl)aminocarbonyl)-3-chloro-4-(5-iodomethyl-5H,6H-1,4,2-dioxadin-3-yl)-1-methylpyrazole-5-sulfonamide]
- herbicidal effect, d: direct sown rice (direct sown rice [1]): 0 (Herbicidal rate 5% or less (little effect))
- herbicidal effect, F: Avena fatua (Avena fatua): 0 (Herbicidal rate 5% or less (little effect))
- herbicidal effect, J: Amaranthus retroflexus (Amaranthus retroflexus [2]): 0 (Herbicidal rate 5% or less (little effect))
- herbicidal effect, b: corn (Zea mays) (corn (Zea mays) [3]): 4 (Herbicidal rate 70% or more and less than 90%)
- herbicidal effect, D: Digitaria adscendes (Digitaria adscendes [4]): 1 (Herbicidal rate 5% or more and less than 20%)
- herbicidal effect, G: Black-grass (Black-grass): 1 (Herbicidal rate 5% or more and less than 20%)
- herbicidal effect, E: Setaria viridis (Setaria viridis [5]): 1 (Herbicidal rate 5% or more and less than 20%)
- herbicidal effect, A: Echinochloa crus-galli (Echinochloa crus-galli [6]): 3 (Herbicidal rate 40% or more and less than 70%)
- herbicidal effect, f: Beta vulgaris (beet) (Beta vulgaris (beet) [7]): 4 (Herbicidal rate 70% or more and less than 90%)
- herbicidal effect, c: soybean (Glycine max) (soybean (Glycine max) [8]): 4 (Herbicidal rate 70% or more and less than 90%)
- herbicidal effect, I: Ambrosia elatior (Ambrosia elatior [9]): 4 (Herbicidal rate 70% or more and less than 90%)
- herbicidal effect, e: Triticum aestivum (wheat) [10]: 0 (Herbicidal rate 5% or less (little effect))
- herbicidal effect, H: Abutilon avicennae (Abutilon avicennae [11]): 5 (Herbicidal rate 90% or more (almost complete death))
- herbicidal effect, K: Chenopodium album (Chenopodium album [12]): 4 (Herbicidal rate 70% or more and less than 90%)
- herbicidal effect, L: Polygonum blumei (Polygonum blumei [13]): 0 (Herbicidal rate 5% or less (little effect))
- herbicidal effect, M: Stellaria media (Stellaria media [14]): 5 (Herbicidal rate 90% or more (almost complete death))
- herbicidal effect, A: Echinochloa crus-galli (Echinochloa crus-galli [15]): 2 (Herbicidal rate 20% or more and less than 40%)
- herbicidal effect, B: Scirpus juncoides (Scirpus juncoides [16]): 4 (Herbicidal rate 70% or more and less than 90%)
- herbicidal effect, C: Monochoria vaginalis (Monochoria vaginalis [17]): 4 (Herbicidal rate 70% or more and less than 90%)
- herbicidal effect, d: direct sown rice (direct sown rice [18]): 0 (Herbicidal rate 5% or less (little effect))
- herbicidal effect, J: Amaranthus retroflexus (Amaranthus retroflexus [19]): 1 (Herbicidal rate 5% or more and less than 20%)
- herbicidal effect, b: corn (Zea mays) (corn (Zea mays) [20]): 0 (Herbicidal rate 5% or less (little effect))
- herbicidal effect, D: Digitaria adscendes (Digitaria adscendes [21]): 0 (Herbicidal rate 5% or less (little effect))
- herbicidal effect, E: Setaria viridis (Setaria viridis [22]): 0 (Herbicidal rate 5% or less (little effect))
- herbicidal effect, A: Echinochloa crus-galli (Echinochloa crus-galli [23]): 0 (Herbicidal rate 5% or less (little effect))
- herbicidal effect, f: Beta vulgaris (beet) (Beta vulgaris (beet) [24]): 2 (Herbicidal rate 20% or more and less than 40%)
- herbicidal effect, c: soybean (Glycine max) (soybean (Glycine max) [25]): 0 (Herbicidal rate 5% or less (little effect))
- herbicidal effect, I: Ambrosia elatior (Ambrosia elatior [26]): 3 (Herbicidal rate 40% or more and less than 70%)
- herbicidal effect, H: Abutilon avicennae (Abutilon avicennae [27]): 0 (Herbicidal rate 5% or less (little effect))
- herbicidal effect, K: Chenopodium album (Chenopodium album [28]): 4 (Herbicidal rate 70% or more and less than 90%)
- herbicidal effect, L: Polygonum blumei (Polygonum blumei [29]): 0 (Herbicidal rate 5% or less (little effect))
- herbicidal effect, M: Stellaria media (Stellaria media [30]): 3 (Herbicidal rate 40% or more and less than 70%)
- herbicidal effect, A: Echinochloa crus-galli (Echinochloa crus-galli [31]): 4 (Herbicidal rate 70% or more and less than 90%)
- herbicidal effect, B: Scirpus juncoides (Scirpus juncoides [32]): 5 (Herbicidal rate 90% or more (almost complete death))
- herbicidal effect, C: Monochoria vaginalis (Monochoria vaginalis [33]): 5 (Herbicidal rate 90% or more (almost complete death))
